In series [1] the target is T1, human cloned 5-HT6 receptors (Homo sapiens, UniProt P50406).
T1 construct: expressed in transfected cells; host or cells: Hela cells
Briefly: 5-HT6 binding affinity ([3H]-LSD displacement, membranes of Hela cells expressing human cloned 5-HT6 receptors). The conditions noted are these: [3H]-LSD 3.0 nM, Hela cell membranes; for Ki: 120 min at room temperature; for % inhibition at 1 μM concentration / inhibition at 1 µM: 1 μM test compound; for inhibition at 1 µM: read-out: % inhibition at 1 μM concentration. As to the method: The affinity of test compounds for the serotonin 5-HT6 receptor is evaluated in the following manner. Cultured Hela cells expressing human cloned 5-HT6 receptors are harvested and centrifuged at low speed (1,000×g) for 10.0 min to remove the culture media. The harvested cells are suspended in half volume of fresh physiological phosphate buffered saline solution and recentrifuged at the same speed. This operation is repeated. The collected cells are then homogenized in ten volumes of 50 mM Tris.HCl (pH 7.4) and 0.5 mM EDTA. The homogenate is centrifuged at 40,000×g for 30.0 min and the precipitate is collected. The obtained pellet is resuspended in 10 volumes of Tris.HCl buffer and recentrifuged at the same speed. The final pellet is suspended in a small volume of Tris.HCl buffer and the tissue protein content is determined in aliquots of 10-25 μl volumes. Bovine Serum Albumin is used as the standard in the protein determination according to the method described in Lowry et al., J. Biol. Chem., 193:265 (1951). The volume of the suspended cell membranes is adjusted to give a tissue protein concentration of 1.0 mg/ml of suspension. The prepared membrane suspension (10 times concentrated) is aliquoted in 1.0 ml volumes and stored at −70° C. until used in subsequent binding experiments.
Binding experiments are performed in a 96 well microtiter plate format, in a total volume of 200 μl. […] The test compounds are added in 20.0 μl volume.
The reaction is allowed to proceed in the dark for 120 min at room temperature, at which time, the bound ligand-receptor complex is filtered off on a 96 well unifilter with a Packard Filtermate® 196Harvester. The bound complex caught on the filter disk is allowed to air dry and the radioactivity is measured in a Packard TopCount® equipped with six photomultiplier detectors, after the addition of 40.0 μl Microscint®-20 scintillant to each shallow well. The unifilter plate is heat-sealed and counted in a PackardTopCount® with a tritium efficiency of 31.0%.
Binding in the presence of varying concentrations of test compound is expressed as a percentage of specific binding in the absence of test compound. The results are plotted a log % bound versus log concentration of test compound. […] A linear regression line of data points is plotted, from which the IC50 value is determined and the Ki value is determined based upon the following equation: Ki=IC50/(1+L/KD) where L is the concentration of the radioactive ligand used and KD is the dissociation constant of the ligand for the receptor, both expressed in nM.

T1 sequence (P50406 whole entry): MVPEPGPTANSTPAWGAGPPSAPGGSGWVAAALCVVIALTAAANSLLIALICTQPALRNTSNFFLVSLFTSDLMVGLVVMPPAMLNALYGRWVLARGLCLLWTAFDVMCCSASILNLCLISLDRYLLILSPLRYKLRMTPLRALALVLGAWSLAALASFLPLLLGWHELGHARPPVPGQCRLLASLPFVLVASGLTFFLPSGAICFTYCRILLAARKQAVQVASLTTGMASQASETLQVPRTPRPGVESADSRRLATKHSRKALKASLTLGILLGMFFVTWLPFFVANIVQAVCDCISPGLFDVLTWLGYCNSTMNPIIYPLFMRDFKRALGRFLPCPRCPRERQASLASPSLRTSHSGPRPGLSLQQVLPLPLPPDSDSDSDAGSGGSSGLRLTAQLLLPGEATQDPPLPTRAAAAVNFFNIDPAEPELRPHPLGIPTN

As for `O=S(=O)(c1cc(Cl)c(Cl)s1)n1ncc2c(OCCN3CCCCC3)cccc21` [Example 23, 1-[(4,5-dichlorothien-2-yl)sulfonyl]-4-[2-(piperidin-1-yl)ethoxy]-1H-indazole], the melting point (usually the temperature, or range, at which the solid turns liquid) fell in the range of 214 to 216 °C. In series [1], the inhibition constant (Ki) (as a rule, a measure of affinity in units of concentration, obtained from inhibition or displacement) is 18 nM. With “N,N-Bis(3-methoxybenzyl)-N-(2-{[1-(phenylsulfonyl)-1H-indol-4-yl]oxy}ethylamine [Example 7a]”, in series [1], the “% inhibition at 1 μM concentration” value is on record as 94% @ 1 μM*.

The compound `O=S(=O)(c1ccc(Cl)s1)n1ncc2c(OCCN3CCCCC3)cccc21` [Example 24, 1-[(5-chlorothien-2-yl)sulfonyl]-4-[2-(piperidin-1-yl)ethoxy]-1H-indazole] displayed a melting point of 187 to 189 °C. In addition, the Ki in series [1] came out at 12 nM. Taken in the same sequence, the figures for `Cc1c(S(=O)(=O)n2ncc3c(OCCN4CCCCC4)cccc32)sc2ccc(Cl)cc12` [Example 26, 1-[(5-chloro-3-methyl-1-benzothien-2-yl)sulfonyl]-4-[2-(piperidin-1-yl)ethoxy]-1H-indazole] were 216 to 218 °C and 53 nM. On the same counts, the results for `Cc1c(S(=O)(=O)n2ccc3c(OCCN4CCCCC4)cccc32)sc2ccc(Cl)cc12` [Example 15, 1-[(5-chloro-3-methyl-1-benzothien-2-yl)sulfonyl]-4-[2-(piperidin-1-yl)ethoxy]-1H-indole] are 217 to 219 °C and 71 nM.

Regarding `Cc1c(S(=O)(=O)n2ccc3cc(OCCN4CCCCC4)ccc32)sc2ccc(Cl)cc12` [Example 14, 1-[(5-chloro-3-methyl-1-benzothien-2-yl)sulfonyl]-5-[2-(piperidin-1-yl)ethoxy]-1H-indole], the inhibition at 1 µM in series [1] was found to be 65%.

On to `O=S(=O)(c1cc(Cl)c(Cl)s1)n1ccc2cc(OCCN3CCCCC3)ccc21` [Example 12, 1-[(4,5-dichlorothien-2-yl)sulfonyl]-5-[2-(piperidin-1-yl)ethoxy]-1H-indole], for which the melting point was 222 to 224 °C. For the same compound, the inhibition at 1 µM in series [1] worked out at 65%. In turn, `O=S(=O)(c1c(Cl)nc2sccn12)n1ncc2c(OCCN3CCCCC3)cccc21` [Example 22, 1-[(6-chloroimidazo[2,1-b][1,3]thiazol-5-yl)sulfonyl]-4-[2-(piperidin-1-yl)ethoxy]-1H-indazole] returned a melting point of 88 to 90 °C. Further, the affinity in series [1] corresponds to a Ki of 2 nM. The compound `O=S(=O)(c1c(Cl)nc2sccn12)n1ccc2cc(OCCN3CCCCC3)ccc21` [Example 13, 1-[(6-chloroimidazo[2,1-b][1,3]thiazol-5-yl)sulfonyl]-5-[2-(piperidin-1-yl)ethoxy]-1H-indole] had a melting point of 60 °C. Moreover, in series [1], the Ki was 22 nM. On the same counts, the results for `O=S(=O)(c1cccs1)n1ncc2c(OCCN3CCCCC3)cccc21` [Example 25, 4-[2-(piperidin-1-yl)ethoxy]-1-(thien-2-ylsulfonyl)-1H-indazole] are 172 to 175 °C and 8 nM.

`O=[N+]([O-])c1ccc(S(=O)(=O)n2ncc3c(OCCN4CCCCC4)cccc32)cc1` [Example 20, 1-[(4-nitrophenyl)sulfonyl]-4-[2-(l-piperidinyl)ethoxy]1H-indazole]: in series [1], the “% inhibition at 1 μM concentration” value is listed as 76% @ 1 μM*.

The compound `O=S(=O)(c1ccc(Cl)s1)n1ccc2cc(OCCN3CCCCC3)ccc21` [Example 11, 1-[(5-chlorothien-2-yl)sulfonyl]-5-[2-(piperidin-1-yl)ethoxy]-1H-indole] had a melting point of 222 to 224 °C. In series [1], the inhibition at 1 µM came to 51%. Consider “N-(3-methoxybenzyl)-N-(2-{[1-(phenylsulfonyl)-1H-indol-4-yl]oxy}ethylamine hydrochloride [Example 7b]”, for which, in series [1], the “% inhibition at 1 μM concentration” value was found to be 95% @ 1 μM*.

These data come from patent US7541358B2, “1-aryl-or 1-alkylsulfonylbenzazole derivatives as 5-hydroxytryptamine-6 ligands” (Wyeth, priority 2001, dated 2009).
